Measured values: patent publication US8613909B2, “Cinnamic acid-based oligomers and uses thereof” (Virginia Commonwealth University, priority 2008, dated 2013)

Key:
[1] = test system: NFκB in Calu-3 human bronchial epithelial cells; experiment: TNFα-dependent NFκB-Luc reporter repression in Calu-3 cells; format: cell-based
Method: Anti-inflammatory activity of each of the oligomers was determined using Calu-3 human bronchial epithelial cells (American Type Culture Collection; ATCC), from repression of the inflammatory transcription factor NFκB. The Calu-3 cells of 0.5×10^6 cells/cm^2 in 12-well plates were cultured for 24 h and then, transfected with 0.6 μg luciferase (Luc)-tagged reporter plasmid construct of NFκB (pNFκB-Luc) for another 24 h using the Effectene reagents (Qiagen) under the protocol optimized in-house. On day 3, the transfected Calu-3 cells were stimulated for 6 h with 30 ng/ml human tumor necrosis factor α (TNF α; BD Biosciences) in the presence of each oligomer at 0-100 μM in culture. Then, the Calu-3 cells were lysed, after which the Luc activities were measured using 20/20n luminometer (Turner BioSystems). The cellular NFκB-Luc activity was expressed in relative light unit/mg protein, normalized by the total protein measured by the BCA assay (Pierce Biotechnology). A fold-induction of such a normalized NFκB-Luc activity relative to the transfection control was derived for treatment group comparison; this accommodated inter-transfection efficiency differences.

[2] = Chemical antioxidant assay (ABTS oxidation by metmyoglobin/hydrogen peroxide); conditions: room temperature, absorbance at 750 nm in first 5 min; read-out: AOC50 (half maximal anti-oxidative concentration)
Method: Anti-oxidative activity of the oligomers was determined at room temperature using the chemical antioxidant assay kit (Cayman Chemical Co.) in a 96-well plate format, in accord with the manufacturer's protocol. The kit has been validated in-house with respect to assay precision and accuracy. Oxidative reaction of ABTS (2,2′-azino-di-[3-ethylbenzthiazoline sulphonate]) to its oxidative product, ABTS•+, by metmyoglobin and 84 μM hydrogen peroxide were monitored for 20 min in the presence of each oligomer at 0-100 μM. The absorbance at 750 nm due to ABTS•+ generation was measured using the microplate reader. Initial linear rate of oxidation was assessed with the absorbance produced for the first 5 min. The half maximal anti-oxidative concentration (AOC50) values were derived, assuming the sigmoidal concentration-dependence of the initial oxidation rate in the logistic function equation.

## CCC(=O)O[C@]1(C(=O)SCF)[C@H](C)C[C@H]2[C@@H]3C[C@H](F)C4=CC(=O)C=C[C@]4(C)[C@@]3(F)[C@@H](O)C[C@@]21C [FP, fluticasone propionate]
[1]; 5 μM
  repression of TNFα-induced NFκB-Luc activity: 100%

## O=C(O)/C=C/c1ccc(O)c(O)c1 [CA, caffeic acid]
[1]; by 100 μM
  repression of NFκB-Luc activity: no appreciable repression
[2]
  EC50: 16.8 ± 1.6 µM
